Values joined by “and” are separate entries in the source; they are usually repeats but may differ in a detail not shown here. Equal values may be shown once.
System: mouse model of MI
Assay: Mouse model of MI (LAD ligation), echocardiography
Format: in vivo
Set-up: left-ventricular end-diastolic volume / left-ventricular end-systolic volume: unit not given here
Description: Twelve-week-old female and male Balb/cJ (Charles River, 000651) mice were randomized into either the ctrl or MI group. Mice in the MI group underwent surgical ligation of the LAD, while mice in the ctrl group underwent a sham procedure (n = 8 female mice, n = 10 male mice). Briefly, all mice received an injection of 0.1 mg/kg buprenorphine (Produlab Pharma) before induction of anesthesia with 8% sevoflurane (Zoetis). Anesthesia was maintained with 4.5% sevoflurane and mice were intubated and ventilated. An incision of 15 mm was made on the left side of the thorax and the thoracic cavity was opened at the third intercostal space using blunt forceps. The LAD was permanently ligated with a 8/0 polypropylene monofilament sutures (Ethicon, F1894) after which the thoracic cavity and skin were closed with 6/0 polypropylene monofilament sutures (Ethicon, F1841). and 5/0 polyamide 6 sutures (Ethilon, F2412H), respectively. Mice received another dose of 0.1 mg/kg buprenorphine 6–8 h after the initial dose. Two days after surgery, cardiac ultrasound was performed to exclude mice without successful MI (i.e. displaying hypokinesia in ≥2 out of 5 segments). […] Cardiac ultrasound was performed weekly. After 4 weeks of treatment, mice were euthanized, and hearts were collected.
Echocardiography was performed using the Vevo F2-LAZRX (FUJIFILM VisualSonics) and UHF57x probe. Mice were anesthetized with 1.5% isoflurane (Alvira, BE-V512222). Parasternal long-axis B-mode images and M-mode images were obtained and analyzed using VevoLAB software (FUJIFILM VisualSonics, Version 5.7.1). For the AngII experiments, measurements were obtained through analysis of the short-axis M-mode. For the MI experiments, measurements were obtained through analysis of the parasternal long-axis B-mode, of which the area and end-volume of the left ventricular cavity in diastole and systole were determined by tracing the endocardial border. Acquisitions, measurements and analyses were performed blinded.
Supplementary Table 2. Echocardiographic parameters. […]
Echocardiographic parameters obtained through left ventricular trace analysis of the parasternal long-axis obtained in B-mode in female wild-type mice that underwent a sham or MI operation: mice with […]
in MI/EF-1 group). (g) Echocardiographic parameters obtained through left ventricular trace analysis of the parasternal long-axis obtained in B-mode in male wild-type mice that underwent a sham or MI […]
male mice in MI/Veh group for T2 and T4). Echocardiographic parameters were measured weekly (indicated by ‘T’). All data are presented as mean (value of individual mice) ± SD, two-tailed unpaired […]
1 groups. Source data are provided as a Source Data file. AngII, angiotensin II; ANOVA, analysis of variance; Ctrl, control; DOX, doxorubicin; EF, ejection fraction; ERBB4, erythroblastic leukemia viral oncogene homolog 4; FS, fractional shortening; IVSd, interventricular septum thickness in diastole; IVSs, interventricular septum thickness in systole; LVIDd, left ventricular internal diameter in diastole; LVIDs, left ventricular internal diameter in systole; LVPWd, left ventricular posterior wall thickness in diastole; LVPWs, left ventricular posterior wall thickness in systole; MI, myocardial infarction; NA, non-activating pharmacophore-containing compound; SD, standard variation; Veh, vehicle.

[1] = Myocardial infarction, female wild-type mice, MI/EF-1, T0
[2] = Myocardial infarction, female wild-type mice, MI/EF-1, T2
[3] = Myocardial infarction, female wild-type mice, MI/EF-1, T3
[4] = Myocardial infarction, female wild-type mice, MI/EF-1, T4
[5] = Myocardial infarction, male wild-type mice, MI/EF-1, T0
[6] = Myocardial infarction, male wild-type mice, MI/EF-1, T2
[7] = Myocardial infarction, male wild-type mice, MI/EF-1, T3
[8] = Myocardial infarction, male wild-type mice, MI/EF-1, T4
[9] = female wild-type mice, MI/EF-1, T0, mean ± SD
[10] = female wild-type mice, MI/EF-1, T2, mean ± SD
[11] = female wild-type mice, MI/EF-1, T3, mean ± SD
[12] = female wild-type mice, MI/EF-1, T4, mean ± SD
[13] = male mice, MI/EF-1, 0 weeks after MI
[14] = male wild-type mice, MI/EF-1, T0, mean ± SD
[15] = male wild-type mice, MI/EF-1, T2, mean ± SD
[16] = male wild-type mice, MI/EF-1, T3, mean ± SD
[17] = male wild-type mice, MI/EF-1, T4, mean ± SD

O=C(NC1CC1)C(Sc1nc2ccccc2c(=O)n1C1CCCC1)c1ccccc1 (stereo not shown) [EF-1]
LVEDA [1]: 21.8 ± 1.4 mm² | LVEDV [1]: 56.7 ± 5.5 µL | LVESA [1]: 15.5 ± 2.1 mm² | LVESV [1]: 32.7 ± 6.7 µL | LVEDA [2]: 25.7 ± 1.6 mm² | LVEDV [2]: 73.6 ± 9.1 µL | LVESA [2]: 20.8 ± 2.9 mm² | LVESV [2]: 53.9 ± 14.5 µL | LVEDA [3]: 26.5 ± 4.5 mm² | LVEDV [3]: 80.3 ± 22.9 µL | LVESA [3]: 21.2 ± 5.8 mm² | LVESV [3]: 56.6 ± 25.0 µL | LVEDA [4]: 26.5 ± 4.5 mm² | LVEDV [4]: 80.3 ± 22.9 µL | LVESA [4]: 21.2 ± 5.8 mm² | LVESV [4]: 56.6 ± 25.0 µL | LVEDA [5]: 24.7 ± 3.9 mm² | LVEDV [5]: 67.1 ± 15.6 µL | LVESA [5]: 17.6 ± 2.8 mm² | LVESV [5]: 37.3 ± 8.9 µL | LVEDA [6]: 34.8 ± 5.5 mm² | LVEDV [6]: 118.7 ± 30.8 µL | LVESA [6]: 29.7 ± 6.7 mm² | LVESV [6]: 93.3 ± 36.1 µL | LVEDA [7]: 36.6 ± 5.9 mm² | LVEDV [7]: 124.6 ± 35.3 µL | LVESA [7]: 31.3 ± 8.0 mm² | LVESV [7]: 100.4 ± 42.0 µL | LVEDA [8]: 35.9 ± 6.9 mm² | LVEDV [8]: 119.8 ± 37.5 µL | LVESA [8]: 30.5 ± 7.7 mm² | LVESV [8]: 92.5 ± 40.6 µL | effect on MI-induced increase in LVEDV and LVESV (in words) (female mice, four-week treatment, EF-1 2 mg/kg/day): significantly attenuated the increase in LVEDV and LVESV | effect on left ventricular ejection fraction (in words) (female mice, four-week treatment, p = 0.0858): trend towards an increased EF | EF (ejection fraction) [9]: 42.7 ± 8.1% | LVEDA [9]: 21.8 ± 1.4 mm² | LVEDV [9]: 56.7 ± 5.5 µL | LVESA [9]: 15.5 ± 2.1 mm² | LVESV [9]: 32.7 ± 6.7 µL | EF (ejection fraction) [10]: 27.4 ± 14.1% | LVEDA [10]: 25.7 ± 1.6 mm² | LVEDV [10]: 73.6 ± 9.1 µL | LVESA [10]: 20.8 ± 2.9 mm² | LVESV [10]: 53.9 ± 14.5 µL | EF (ejection fraction) [11]: 32.2 ± 12.4% | LVEDA [11]: 26.5 ± 4.5 mm² | LVEDV [11]: 80.3 ± 22.9 µL | LVESA [11]: 21.2 ± 5.8 mm² | LVESV [11]: 56.6 ± 25.0 µL | EF (ejection fraction) [12]: 32.2 ± 12.4% | LVEDA [12]: 26.5 ± 4.5 mm² | LVEDV [12]: 80.3 ± 22.9 µL | LVESA [12]: 21.2 ± 5.8 mm² | LVESV [12]: 56.6 ± 25.0 µL | effect on LVEDV, LVESV, or EF (in words) (male mice): did not have affect LVEDV, LVESV, or EF | ejection fraction [13]: 45.4182 and 46.7993 and 31.6272 and 37.5306 and 56.6563 | left-ventricular end-diastolic volume [13]: 76.7178 and 76.3835 and 40.6948 and 76.4847 and 65.2387 | left-ventricular end-systolic volume [13]: 41.874 and 40.6361 and 27.8242 and 47.7795 and 28.2468 | left-ventricular end-diastolic volume (male mice, MI/EF-1, 3 weeks after MI): 90.4868 and 146.112 and 167.204 and 86.1633 and 133.043 | EF (ejection fraction) [14]: 43.6 ± 9.5% | LVEDA [14]: 24.7 ± 3.9 mm² | LVEDV [14]: 67.1 ± 15.6 µL | LVESA [14]: 17.6 ± 2.8 mm² | LVESV [14]: 37.3 ± 8.9 µL | EF (ejection fraction) [15]: 23.2 ± 12.8% | LVEDA [15]: 34.8 ± 5.5 mm² | LVEDV [15]: 118.7 ± 30.8 µL | LVESA [15]: 29.7 ± 6.7 mm² | LVESV [15]: 93.3 ± 36.1 µL | EF (ejection fraction) [16]: 22.0 ± 15.7% | LVEDA [16]: 36.6 ± 5.9 mm² | LVEDV [16]: 124.6 ± 35.3 µL | LVESA [16]: 31.3 ± 8.0 mm² | LVESV [16]: 100.4 ± 42.0 µL | EF (ejection fraction) [17]: 25.2 ± 11.5% | LVEDA [17]: 35.9 ± 6.9 mm² | LVEDV [17]: 119.8 ± 37.5 µL | LVESA [17]: 30.5 ± 7.7 mm² | LVESV [17]: 92.5 ± 40.6 µL

From article PMC11724075, “Small-molecule-induced ERBB4 activation to treat heart failure” (Nature Communications, 2025)
